1 compound from article PMC6801514, “Structural and Functional Characterization of Three Novel Fungal Amylases with Enhanced Stability and pH Tolerance” (International Journal of Molecular Sciences, 2019) can be followed below.

In the test the target is T1, CfAM (Cordyceps farinosa, UniProt A0A5S8WFA8).
T1 construct: A, B and C domains (native enzyme lacks CBM20); secreted from Aspergillus oryzae MT3568, mature about 48 kDa, no tag told; two monomers in the asymmetric unit
T1 sequence (A0A5S8WFA8 19-460): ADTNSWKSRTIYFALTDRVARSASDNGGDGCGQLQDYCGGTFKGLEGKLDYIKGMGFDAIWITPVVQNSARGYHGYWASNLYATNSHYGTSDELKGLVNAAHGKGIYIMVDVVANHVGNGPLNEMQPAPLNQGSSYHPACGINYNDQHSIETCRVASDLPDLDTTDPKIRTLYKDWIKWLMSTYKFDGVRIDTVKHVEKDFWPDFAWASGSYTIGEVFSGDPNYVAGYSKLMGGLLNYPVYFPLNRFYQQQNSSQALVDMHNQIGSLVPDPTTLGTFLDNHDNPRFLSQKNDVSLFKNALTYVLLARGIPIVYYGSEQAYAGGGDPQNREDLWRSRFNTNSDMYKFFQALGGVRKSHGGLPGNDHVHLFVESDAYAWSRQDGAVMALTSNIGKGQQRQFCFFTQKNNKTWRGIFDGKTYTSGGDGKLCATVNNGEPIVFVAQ
Put plainly: X-ray crystallography, […] Å. Particulars: co-crystallised with 40 mM acarbose, 12% PEG 3350, 0.2 M NaNO3, CAPS pH 11.0; active-site cleft, subsites -4 to +3; ligand formed from acarbose in crystallo crystal (acarbose added, no maltose additio). Type of test: binding.

Turning to `OC[C@H]1O[C@H](O[C@H]2[C@H](O)[C@@H](O)C(O)O[C@@H]2CO)[C@H](O)[C@@H](O)[C@@H]1O` (stereo partly shown) [maltose], the “X-ray crystallography, 1.35 Å” value is “a secondary binding site in domain C was identified and modelled as maltose”.
